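Each compound was tested at five concentrations against cells in 96-well plates for 48 hours. Here, GI50 denotes the concentration required for 50% inhibition of growth. TGI: total growth inhibition.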
Tests used:
Test in all cases: DTP human tumour cell line panel, 48 h
[1] = test system: OVCAR-8 ovarian
[2] = test system: K-562 leukemia
[3] = test system: PC-3 prostate
[4] = test system: LOX IMVI melanoma
[5] = test system: SW-620 colon
[6] = test system: SK-MEL-5 melanoma
[7] = test system: CAKI-1 renal
[8] = test system: HOP-92 NSCLC
[9] = test system: SF-295 CNS
[10] = test system: A498 renal

SMILES	GI50 [1]	TGI [1]	GI50 [2]	TGI [2]	GI50 [3]	TGI [3]	GI50 [4]	TGI [4]	GI50 [5]	TGI [5]	GI50 [6]	TGI [6]	GI50 [7]	TGI [7]	GI50 [8]	TGI [8]	GI50 [9]	TGI [9]	GI50 [10]	TGI [10]
COc1ccc2c(c1)C(=O)c1c-2n(CCCN(C)C)c(=O)c2ccccc12	0.186 µM	11.3 µM	0.287 µM	17.5 µM	0.436 µM	8.07 µM	0.162 µM	1.01 µM	0.16 µM	3.93 µM	0.123 µM	0.406 µM	0.243 µM	4.9 µM	0.886 µM	4.57 µM	0.223 µM	1.21 µM	0.377 µM	1.72 µM
Cc1c(-c2cnccn2)ssc1=S		> 100 µM		> 100 µM		> 100 µM		98.8 µM		> 100 µM		> 100 µM		> 100 µM		89.7 µM		> 95.1 µM		59.7 µM
CN(Cc1ccccc1)Cn1ccnc1		> 100 µM		> 100 µM		> 100 µM		> 100 µM		> 100 µM		> 63.4 µM		> 100 µM		> 100 µM		> 100 µM		> 100 µM
COc1c/c(=C2\C=c3ccccc3=N2)[nH]/c1=C\c1[nH]c(C)cc1C	0.214 µM	> 21.8 µM	0.0685 µM	8.33 µM	0.12 µM	31.3 µM	< 0.01 µM		< 0.01 µM	51.4 µM	< 0.0105 µM	0.0352 µM	< 0.0103 µM	0.109 µM	0.111 µM	1.97 µM	0.034 µM	0.593 µM	0.242 µM	7.47 µM
Cc1cc2c(C(=O)NC[C@H](C)c3ccccc3)c(O)c(O)cc2c(O)c1-c1c(C)cc2c(C(=O)NC[C@H](C)c3ccccc3)c(O)c(O)cc2c1O	0.588 µM	10.1 µM	0.17 µM	7.69 µM	0.342 µM	1.46 µM	0.539 µM	4.89 µM	0.482 µM	5.7 µM	0.447 µM	1.47 µM	0.375 µM	10 µM	0.276 µM	1 µM	0.131 µM	0.702 µM	0.316 µM	7.54 µM
CN[C@H]1CN(c2ccc3c(=O)c(C(=O)O)cn(-c4nccs4)c3n2)C[C@@H]1OC	0.457 µM	3.73 µM	0.632 µM	5.81 µM	1.65 µM	19.4 µM	0.266 µM	3.4 µM	0.633 µM	3.54 µM	0.831 µM	2.23 µM	0.271 µM	2.24 µM	0.176 µM	0.938 µM	0.332 µM	2.37 µM	0.273 µM	2.01 µM
Cc1cnc2n1S(=O)(=O)c1cc(C(=O)Nc3cccc4nsnc34)c(Cl)cc1S2	33.6 µM	> 100 µM	40.8 µM	> 100 µM	20.1 µM	38.9 µM	32.9 µM	> 100 µM	19.1 µM	37.2 µM	26.4 µM	98.1 µM	16.8 µM	30.9 µM	18.3 µM	50.4 µM	22.8 µM	49.3 µM	13.8 µM	34.8 µM
CC(C)(C)C(=O)OCOP(=O)(NCc1ccccc1)C1CCCN(O)C1=O (centres undefined)	1.17 µM	> 100 µM	1.13 µM	> 100 µM	5.08 µM	> 100 µM	2.85 µM	15.8 µM	2.87 µM	> 100 µM	1.76 µM	4.33 µM	3.5 µM	> 100 µM	1.06 µM	7.72 µM	3.23 µM	29.5 µM	0.692 µM	9.18 µM
Oc1ccc(C=Nc2ccccc2O)cc1		> 100 µM		> 100 µM		> 100 µM		> 100 µM		> 100 µM		62.7 µM		> 100 µM		> 100 µM		> 100 µM		> 100 µM
COC(COC(N)=O)C1=C(N2CC2)C(=O)C(C)=C(N2CC2)C1=O (centres undefined)		0.24 µM		1.76 µM		1.51 µM		0.326 µM		0.703 µM		0.128 µM		0.085 µM		1.15 µM		0.413 µM		0.267 µM
C=CN(C(=O)N1CCN(c2cc3c(cc2F)c(=O)c(C(=O)O)cn3C2CC2)CC1)c1nc(-c2ccc(OC)cc2)cs1	3.3 µM	15.5 µM	3.14 µM	> 100 µM	3.65 µM	> 100 µM	2.45 µM	> 100 µM	4.04 µM	> 100 µM	2.11 µM	4.78 µM	2.84 µM	18.3 µM	2.45 µM	5.57 µM	2.83 µM	8.26 µM	2.93 µM	> 100 µM
CC(=O)O[C@@H]1C2CCC3C(CC[C@@]4(C)C3CC[C@@H]4C(C)N(C)C)[C@@]2(C)CC[C@@H]1NC(=O)C=C(C)C (some centres undefined)	4.64 µM	> 35.7 µM	1.1 µM	3.15 µM	2.79 µM	13.9 µM	1.47 µM	3.09 µM	1.73 µM	3.48 µM	1.38 µM	2.68 µM	3.4 µM	11.3 µM	1.66 µM	10.7 µM	1.85 µM	4.42 µM	2.32 µM	9.78 µM
O=C(CN(/C=C/C(=O)C(F)(F)F)c1ccc(Cl)cc1)c1ccc(Cl)cc1	10.8 µM	26.9 µM	5.93 µM	32.5 µM	12.9 µM	26.5 µM	4.61 µM	20.9 µM	10.2 µM	23.7 µM	11.6 µM	24.3 µM	1.98 µM	9.5 µM	19.2 µM	35.8 µM	4.66 µM	17.7 µM	13.5 µM	26.9 µM
O=c1oc2ccc(I)cc2c(=O)n1-c1ccc(Br)cc1F	0.821 µM	11.8 µM	0.536 µM	> 71.7 µM	1.94 µM	6.89 µM	0.626 µM	5.86 µM	1.1 µM	9.68 µM	0.317 µM	1.04 µM	0.375 µM	3.23 µM	0.207 µM	0.634 µM	1.72 µM	3.41 µM	0.225 µM	0.697 µM
CCc1ccc(Oc2c(-c3ccc(OCc4ccc(Cl)cc4)cc3O)n[nH]c2C(F)(F)F)cc1	2.52 µM	5.87 µM	2.32 µM	5.37 µM	1.88 µM	3.86 µM	1.63 µM	3.01 µM	2.05 µM	4.45 µM	1.66 µM	3.03 µM	2.29 µM	5.95 µM	2.03 µM	4.77 µM	2.04 µM	4.74 µM	1.87 µM	3.82 µM
CNC(=O)c1c(C)oc2cc(Oc3ncnc4cc(OC)c(OC)cc34)ccc12	> 100 µM	> 100 µM	> 100 µM	> 100 µM	> 100 µM	> 100 µM	> 100 µM	> 100 µM	> 100 µM	> 100 µM	> 100 µM	> 100 µM	> 100 µM	> 100 µM	3.2 µM	> 100 µM	> 100 µM	> 100 µM	0.946 µM	5.44 µM
O=C(O)CCNCC(=O)O		> 100 µM		> 100 µM		> 100 µM		> 100 µM		> 100 µM		> 100 µM		> 100 µM		> 100 µM		> 100 µM		> 100 µM
COc1ccc(/C=C\c2cc(OC)c(OC)c(OC)c2)cc1OCC(=O)Nc1nc2ccc(F)cc2s1	7.15 µM	> 100 µM	3.62 µM	> 100 µM	6.74 µM	> 100 µM	3.23 µM	> 100 µM	65.1 µM	> 100 µM	1.76 µM	8.96 µM	2.78 µM	> 100 µM	5.73 µM	> 100 µM	4.29 µM	> 100 µM	6.25 µM	> 100 µM
Cc1nn(CNc2ccccc2C(F)(F)F)c(=S)n1/N=C/c1cccc2cccnc12	> 100 µM	> 100 µM	35.8 µM	> 100 µM	79.1 µM	> 100 µM	34.7 µM	> 100 µM	65.8 µM	> 100 µM	> 100 µM	> 100 µM	> 100 µM	> 100 µM	74.7 µM	> 100 µM	> 100 µM	> 100 µM	> 100 µM	> 100 µM
O=C1Nc2c(ccc(Cl)c2Cl)/C1=C/c1cc(Br)c(O)c(Br)c1	10 µM	> 100 µM	5.57 µM	> 100 µM	5.23 µM	> 100 µM	6.94 µM	63.6 µM	4.67 µM	> 100 µM	2.6 µM	10.2 µM	2.59 µM	> 37 µM	7.17 µM	62.3 µM	2.71 µM	19.8 µM	3.9 µM	23.3 µM
